Results as given in patent publication US10428081B2, “EGFR inhibitor, preparation method and use thereof” (Shanghai Hansoh Biomedical Co., Ltd., priority 2014, dated 2019).

Assays:
[1] = target: exon 20 T790M mutant-type EGFR enzyme (Homo sapiens, UniProt P00533, T790M); test: Enzymologic experiment of T790M mutant-type EGFR (TR-FRET); assay type: biochemical; settings: for IC50: T790M EGFR enzyme, TR-FRET, ATP 1 to 10 uM; for Selectivity of wild-type/mutant-type: ratio WT IC50 / T790M IC50, enzyme
Chain of exon 20 T790M mutant-type EGFR enzyme (P00533 25-1210 T790M): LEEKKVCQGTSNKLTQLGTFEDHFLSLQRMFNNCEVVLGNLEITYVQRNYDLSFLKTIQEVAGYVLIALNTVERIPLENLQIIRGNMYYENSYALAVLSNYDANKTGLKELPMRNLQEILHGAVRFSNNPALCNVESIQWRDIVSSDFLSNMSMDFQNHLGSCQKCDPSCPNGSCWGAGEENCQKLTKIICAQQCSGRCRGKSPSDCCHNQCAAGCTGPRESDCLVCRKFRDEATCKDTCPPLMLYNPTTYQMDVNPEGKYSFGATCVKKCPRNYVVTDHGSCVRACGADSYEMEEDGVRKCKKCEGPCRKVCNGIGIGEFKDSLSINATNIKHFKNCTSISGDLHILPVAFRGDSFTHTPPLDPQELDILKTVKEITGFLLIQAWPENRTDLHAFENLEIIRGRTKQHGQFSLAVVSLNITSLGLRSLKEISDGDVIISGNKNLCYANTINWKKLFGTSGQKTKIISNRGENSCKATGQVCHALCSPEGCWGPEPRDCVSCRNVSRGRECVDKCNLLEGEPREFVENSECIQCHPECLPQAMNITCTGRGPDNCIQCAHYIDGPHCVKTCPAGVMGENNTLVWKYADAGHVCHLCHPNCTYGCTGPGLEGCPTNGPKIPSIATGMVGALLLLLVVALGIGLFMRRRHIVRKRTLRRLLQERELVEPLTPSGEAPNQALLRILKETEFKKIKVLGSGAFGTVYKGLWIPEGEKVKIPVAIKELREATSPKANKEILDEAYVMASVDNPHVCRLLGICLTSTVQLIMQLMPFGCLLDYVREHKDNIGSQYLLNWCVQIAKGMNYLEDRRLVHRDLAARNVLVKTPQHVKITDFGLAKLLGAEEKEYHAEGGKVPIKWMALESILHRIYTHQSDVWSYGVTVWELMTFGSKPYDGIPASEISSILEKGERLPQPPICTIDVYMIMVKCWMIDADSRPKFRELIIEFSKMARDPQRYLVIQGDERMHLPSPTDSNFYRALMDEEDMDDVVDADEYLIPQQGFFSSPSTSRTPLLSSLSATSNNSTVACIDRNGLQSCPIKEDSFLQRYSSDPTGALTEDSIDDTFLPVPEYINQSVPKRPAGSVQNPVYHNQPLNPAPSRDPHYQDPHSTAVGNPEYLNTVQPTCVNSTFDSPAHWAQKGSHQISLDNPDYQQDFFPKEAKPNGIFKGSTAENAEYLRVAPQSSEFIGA
Method: (§1) 2) 1 to 5 μL of diluted solution in gradient of the compound was added.
(§2) 3) The mixture was incubated for 10 minutes at room temperature.
(§3) 6) 5 μL of EDTA stop solution was added to terminate the reaction for 5 minutes.
7) […] of a test solution containing the labeled antibody was added, and the mixture was incubated at room temperature for 1 hour.
9) The inhibition rates were calculated according to the fluorescence signal values.
(§4) 10) The IC50 of the compound was obtained by curve fitting according to the inhibition rates at different concentrations.

wild-type EGFR enzyme = wild-type EGFR enzyme (Homo sapiens, UniProt P00533); test: Enzymologic experiment of wild-type (WT) EGFR (TR-FRET); assay type: biochemical; settings: ATP 0.1 to 5 uM
Chain of wild-type EGFR enzyme (P00533 25-1210): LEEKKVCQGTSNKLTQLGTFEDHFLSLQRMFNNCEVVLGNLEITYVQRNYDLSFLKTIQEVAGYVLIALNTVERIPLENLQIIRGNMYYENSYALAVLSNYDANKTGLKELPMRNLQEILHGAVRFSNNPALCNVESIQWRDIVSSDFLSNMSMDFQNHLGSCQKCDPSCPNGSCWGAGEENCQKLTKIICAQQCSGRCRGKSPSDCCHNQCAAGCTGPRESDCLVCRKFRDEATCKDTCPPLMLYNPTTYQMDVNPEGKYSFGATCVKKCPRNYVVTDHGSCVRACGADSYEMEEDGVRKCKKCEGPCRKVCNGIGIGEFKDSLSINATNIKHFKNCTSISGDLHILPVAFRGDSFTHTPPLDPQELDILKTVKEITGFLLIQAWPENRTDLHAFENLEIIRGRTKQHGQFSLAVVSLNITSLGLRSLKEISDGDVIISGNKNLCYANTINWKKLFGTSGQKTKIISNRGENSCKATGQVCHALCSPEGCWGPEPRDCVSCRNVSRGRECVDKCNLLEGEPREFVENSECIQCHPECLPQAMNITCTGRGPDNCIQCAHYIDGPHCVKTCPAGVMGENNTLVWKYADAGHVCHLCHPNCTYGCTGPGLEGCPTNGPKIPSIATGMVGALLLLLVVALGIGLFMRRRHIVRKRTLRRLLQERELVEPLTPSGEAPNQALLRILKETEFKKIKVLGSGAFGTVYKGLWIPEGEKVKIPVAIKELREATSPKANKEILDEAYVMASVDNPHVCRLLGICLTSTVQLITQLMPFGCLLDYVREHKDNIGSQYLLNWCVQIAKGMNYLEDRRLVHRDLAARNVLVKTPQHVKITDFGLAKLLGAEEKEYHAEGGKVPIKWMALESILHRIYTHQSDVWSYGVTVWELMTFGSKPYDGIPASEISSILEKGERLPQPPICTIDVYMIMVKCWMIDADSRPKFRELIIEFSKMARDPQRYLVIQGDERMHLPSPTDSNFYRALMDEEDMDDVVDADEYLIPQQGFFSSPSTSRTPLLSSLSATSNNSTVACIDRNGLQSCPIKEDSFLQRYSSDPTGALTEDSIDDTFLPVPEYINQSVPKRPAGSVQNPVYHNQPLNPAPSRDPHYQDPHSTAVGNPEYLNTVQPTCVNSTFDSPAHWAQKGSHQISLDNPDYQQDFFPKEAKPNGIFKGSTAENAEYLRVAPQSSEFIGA
Method: 2. Enzymologic Experiment of Wild-Type (WT) EGFR
In this experiment, the inhibitory effect of compounds on wild-type EGFR enzyme was tested by a fluorescence resonance energy transfer (TR-FRET) method, and the half maximal inhibitory concentration IC50 of the compounds on enzymatic activity was determined.
1) 1 to 5 μL of wild-type EGFR enzyme solution was added to a 384-well plate, and the final concentration of the enzyme was 0.1 to 1 nM.
as §1, §2, §3
7) 5 μL of a test solution containing the labeled antibody was added, and the mixture was incubated at room temperature for 1 hour.
9) The inhibition rates were calculated from the fluorescence signal values.
as §4

NCI-H1975 cells = test: Inhibition of NCI-H1975 cell proliferation (CellTiter-Glo); assay type: cell-based; settings: for IC50: Homo sapiens, NCI-H1975, 72 h, NCI-H1975 cell proliferation, 72 hours, CellTiter-Glo, read-out: EGFR IC50 (nM) H1975; for Selectivity of wild-type/mutant-type: ratio A431 IC50 / H1975 IC50, cells
Method: 3. Experiment on the Inhibition of NCI-H1975 Cell Proliferation
In this experiment, the inhibitory effect of the compounds on NCI-H1975 cell proliferation was tested by a CellTiter-Glo method, and the half maximal inhibitory concentration (IC50) of the compounds on the activity of cell proliferation was determined.
The culture plate was incubated in an incubator for 16 to 24 hours (37° C., 5% CO2).
(§5) 2) Different concentrations of the test compound in a gradient dilution were added to the cells in the culture plate. The culture plate was incubated in an incubator for 72 hours (37° C., 5% CO2).
3) 50 to 100 μL of CellTiter-Glo reagent was added to each well. Then, the culture plate was shaken for 10 minutes, and left to stand at room temperature for 10 minutes.
(§6) 4) The chemiluminescence signal values of each plate were determined by a microplate reader.
5) The inhibition rates were calculated according to the chemiluminescence signal values.
6) The IC50 of the compound was obtained by curve fitting according to the inhibition rates at different concentrations.

A431 cells = test: Inhibition of A431 cell proliferation (CellTiter-Glo); assay type: cell-based; settings: Homo sapiens, A-431, 72 h, read-out: EGFR IC50 (nM) A431
Method: 4. Experiment on the Inhibition of A431 Cell Proliferation
In this experiment, the inhibitory effect of the compounds on A431 cell proliferation was tested by a CellTiter-Glo method, and the half maximal inhibitory concentration (IC50) of the compounds on the activity of cell proliferation was determined.
The culture plate was incubated in the incubator for 16 to 24 hours (37° C., 5% CO2).
as §5
3) 50 to 100 μL of CellTiter-Glo reagent was added to each well. Then the culture plate was shaken for 10 minutes, and left to stand at room temperature for 10 minutes.
as §6
5) The inhibition rates were calculated according to the chemiluminescence signal values. 6) The IC50 of the compound was obtained by curve fitting according to the inhibition rates at different concentrations.

SMILES	IC50 [1] [nM]	Selectivity of wild-type/mutant-type [1]	IC50 (wild-type EGFR enzyme) [nM]	IC50 (NCI-H1975 cells) [nM]	IC50 (A431 cells) [nM]	Selectivity of wild-type/mutant-type (NCI-H1975 cells)
C=CC(=O)Nc1cc(Nc2nccc(-n3ncc4ccccc43)n2)c(OC)cc1N(C)CCN(C)C [Example 40, N-(5-((4-(1H-indazol-1-yl)pyrimidin-2-yl)amino)-2-((2-(dimethylamino)ethyl)(methyl)amino)-4-methoxyphenyl)acrylamide]	0.39	8.62	3.36	1.95	339	174.05
C=CC(=O)Nc1cc(Nc2nccc(-n3ncc4cc(OCC)ccc43)n2)c(OC)cc1N(C)CCN(C)C [Example 105, N-(2-((2-(dimethylamino)ethyl)(methyl)amino)-5-((4-(5-ethoxy-1H-indazol-1-yl)pyrimidin-2-yl)amino)-4-methoxyphenyl)acrylamide]	0.26	2.38	0.62	3.12	887	284.29
C=CC(=O)Nc1cc(Nc2nccc(-c3c[nH]c4c(OC)cccc34)n2)c(OC)cc1N(C)CCN(C)C [Example 94, N-(2-((2-(dimethylamino)ethyl)(methyl)amino)-4-methoxy-5-((4-(7-methoxy-1H-indol-3-yl)pyrimidin-2-yl)amino)phenyl)acrylamide]	0.71	1.771	1.26	3.91	38.8	9.93
C#CCn1cc(-c2ccnc(Nc3cc(NC(=O)C=C)c(N(C)CCN(C)C)cc3OC)n2)c2ccccc21 [Example 140, N-(2-((2-(dimethylamino)ethyl)(methyl)amino)-4-methoxy-5-((4-(1-(prop-2-yn-1-yl)-1H-indol-3-yl)pyrimidin-2-yl)amino)phenyl)acrylamide]	0.58	14.76	8.56	2.66	576	216.69
C=CC(=O)Nc1cc(Nc2nccc(-c3cn(C)c4cc(C#N)ccc34)n2)c(OC(F)F)cc1N(C)CCN(C)C [Example 9, N-(5-((4-(6-cyano-1-methyl-1H-indol-3-yl)pyrimidin-2-yl)amino)-4-(difluoromethoxy)-2-((2-(dimethylamino)ethyl)(methyl)amino)phenyl)acrylamide]	0.39	5.44	2.12	4.58	216	47.07
C=CC(=O)Nc1cc(Nc2nccc(-n3nc(C)c4cc(OC)c(OC)cc43)n2)c(OC)cc1N(C)CCN(C)C [Example 53, N-(5-((4-(5,6-dimethoxy-3-methyl-1H-indazol-1-yl)pyrimidin-2-yl)amino)-2-((2-(dimethylamino)ethyl)(methyl)amino)-4-methoxyphenyl)acrylamide]	2.53	13.50	34.1	20	628	31.38
C=CC(=O)Nc1cc(Nc2nccc(-n3ncc4c(OC)cccc43)n2)c(OC)cc1N(C)CCN1CCCC1 [Example 135, N-(4-methoxy-5-((4-(4-methoxy-1H-indazol-1-yl)pyrimidin-2-yl)amino)-2-(methyl(2-(pyrrolidin-1-yl)ethyl)amino)phenyl)acrylamide]	0.46	10.04	4.62	7.5	444	59.19
C=CC(=O)Nc1cc(Nc2nccc(-n3cnc4cc(OC)ccc43)n2)c(OC)cc1N(C)CCN1CCCC1 [Example 138, N-(4-methoxy-5-((4-(5-methoxy-1H-benzo[d]imidazol-1-yl)pyrimidin-2-yl)amino)-2-(methyl(2-(pyrrolidin-1-yl)ethyl)amino)phenyl)acrylamide]	0.5	9.84	4.92	3.37	408	121.22
C=CC(=O)Nc1cc(Nc2nccc(-c3cn(S(=O)(=O)N(C)C)c4ccccc34)n2)c(OC(F)F)cc1N(C)CCN(C)C [Example 21, N-(4-(difluoromethoxy)-2-((2-(dimethylamino)ethyl)(methyl)amino)-5-((4-(1-(N,N-dimethylsulfamoyl)-1H-indol-3-yl)pyrimidin-2-yl)amino)phenyl)acrylamide]	0.3	1.33	0.4	3.23	70.8	21.93
C=CC(=O)Nc1cc(Nc2ncc(Cl)c(-n3ncc4cc(C#N)ccc43)n2)c(OC)cc1N(C)CCN(C)C [Example 51, N-(5-((5-chloro-4-(5-cyano-1H-indazol-1-yl)pyrimidin-2-yl)amino)-2-((2-(dimethylamino)ethyl)(methyl)amino)-4-methoxyphenyl)acrylamide]	0.53	27.56	14.5	5.06	394	77.94

Continued, in another order:

IC50 [1] [nM]	Selectivity of wild-type/mutant-type [1]	IC50 (wild-type EGFR enzyme) [nM]	IC50 (NCI-H1975 cells) [nM]	IC50 (A431 cells) [nM]	SMILES	Selectivity of wild-type/mutant-type (NCI-H1975 cells)
0.21	23.86	5.01	2.08	36.5	C=CC(=O)Nc1cc(Nc2ncc(C(F)(F)F)c(-c3cn(C)c4cc(OC)ccc34)n2)c(OC)cc1N(C)CCN(C)C [Example 99, N-(2-((2-(dimethylamino)ethyl)(methyl)amino)-4-methoxy-5-((4-(6-methoxy-1-methyl-1H-indol-3-yl)-5-(trifluoromethyl)pyrimidin-2-yl)amino)phenyl)acrylamide]	17.57
3.53	1.1	4.02	8.62	453	C=CC(=O)Nc1cc(Nc2nccc(-c3cn(C)c4ccc(OC)cc34)n2)c(OC)cc1N(C)CCN(C)C [Example 24, N-(2-((2-(dimethylamino)ethyl)(methyl)amino)-4-methoxy-5-((4-(5-methoxy-1-methyl-1H-indol-3-yl)pyrimidin-2-yl)amino)phenyl)acrylamide]	52.59
0.61	71.05	43.3	29.9	199	C=CC(=O)Nc1cc(Nc2ncc(C(F)(F)F)c(-n3nc(CC)c4cc(C#N)ccc43)n2)c(OC)cc1N(C)CCN(C)C [Example 117, N-(5-((4-(5-cyano-3-ethyl-1H-indazol-1-yl)-5-(trifluoromethyl)pyrimidin-2-yl)amino)-2-((2-(dimethylamino)ethyl)(methyl)amino)-4-methoxyphenyl)acrylamide]	6.65
0.39	16.3	6.41	10	158	C=CC(=O)Nc1cc(Nc2nccc(-c3cn(C)c4cc(OC)ccc34)n2)c(OC(F)F)cc1N(C)CCN(C)C [Example 4, N-(4-(difluoromethoxy)-2-((2-(dimethylamino)ethyl)(methyl)amino)-5-((4-(6-methoxy-1-methyl-1H-indol-3-yl)pyrimidin-2-yl)amino)phenyl)acrylamide]	15.78
0.88	216.14	190	14.3	354	C=CC(=O)Nc1cc(Nc2ncc(C(F)(F)F)c(-n3nc(C)c4cc(C#N)ccc43)n2)c(OC)cc1N(C)CCN(C)C [Example 106, N-(5-((4-(5-cyano-3-methyl-1H-indazol-1-yl)-5-(trifluoromethyl)pyrimidin-2-yl)amino)-2-((2-(dimethylamino)ethyl)(methyl)amino)-4-methoxyphenyl)acrylamide]	24.70
